Columns and labels:
[1] = tested on: Human osteoclast precursors; test: OsteoLyse assay: osteoclast differentiation and collagen degradation in vitro; type: cell-based; conditions: relative to standard control wells (100%); day seven of culture; FIG. 1
Method: A 96-well OsteoLyse™ assay system (commercially available from Lonza Biosciences, Walkersville, Md.) was used for this evaluation. Specifically, a 96-well OsteoLyse™ plate was coated with fluorophore-derivatized human bone matrix (europium conjugated collagen). Human osteoclast precursors, at a density of 10,000/200 μl of differentiation medium (containing M-CSF and RANK Ligand) were seeded onto the surface of the plate. Triplicate cell culture wells were treated with one of: Curcumin in DMSO; Vitamin K2 in ethanol; combination of Curcumin and Vitamin K2; and alendronate (control). Cell culture wells with only differentiation medium were treated as standard control wells. After six days of culture, old medium was removed and 200 μl of fresh differentiation medium was added to all wells. Twenty-four hours later, on day seven of culture, 10 μl of medium supernatant was used for fluorescence measurement. For the measurement, 10 μl of medium supernatant was added to 100 μl of fluorophore-releasing agent (Lonza Bioscience, Walkersville, Md.) in a black-walled 96-well plate. The samples were briefly mixed and fluorescence was determined using a time-resolved fluorescence fluorimeter (Spectramax M5, available from Molecular Devices, Sunnyvale, Calif., with excitation at 340 nm and emission at 615 nm) over a 400-microsecond time period after an initial delay of 400 microseconds. Osteoclast differentiation in a standard control cell culture well was assumed to be 100% and relative osteoclast differentiation, with respect to control wells, in other cell culture wells was calculated and plotted on the bar graph shown in FIG. 1.

[2] = tested on: Primary human osteoclast precursors; test: OsteoAssay plate / CalciFluor assay: bone resorption by osteoclasts; type: cell-based; conditions: relative to standard control cells; calcium release, day eight of culture; FIG. 2
Method: A 96-well OsteoAssay™ plate (commercially available from Lonza Biosciences, Walkersville, Md.) was used for this evaluation. Specially, a 96-well OsteoAssay™ plate was coated with a thin-layer of adherent human bone particles. Primary human osteoclast precursors, at a density of 10,000/200 μl of differentiation medium (containing M-CSF and RANK Ligand), were seeded onto the surface of the plate. Triplicate cell culture wells were treated with one of: Curcumin in DMSO; Vitamin K2 in ethanol; combination of Curcumin and Vitamin K2; and alendronate (control). Cell culture wells with only differentiation medium were treated as standard control wells. After six days of culture, old medium was removed and 200 μl of fresh basal resorption medium containing M-CSF and RANK Ligand was added to all wells. Forty-eight hours later, on day eight of culture, 10 μl of medium supernatant was used for calcifluor assay. […] The samples were briefly mixed and fluorescence was determined using a fluorimeter (Spectramax M5, available from Molecular Devices, Sunnyvale, Calif., with excitation at 551 nm and emission at 577 nm). The concentration of calcium in each well was calculated based on the standard curve. […] The relative percentage inhibition of bone resorption, with respect to standard control cells, was calculated and plotted on the bar graph as shown in FIG. 2.

| Molecule | inhibition of osteoclast differentiation [1] | inhibition of bone resorption [2] |
| --- | --- | --- |
| menaquinone [Vitamin K2] | did not significantly inhibit | 31.9% |
| COc1cc(/C=C/C(=O)CC(=O)/C=C/c2ccc(O)c(OC)c2)ccc1O [Curcumin, (1E,6E)-1,7-bis(4-hydroxy-3-methoxyphenyl)-1,6-heptadiene-3,5-dione] | did not significantly inhibit | 39.7% |
| NCCCC(O)(P(=O)(O)O)P(=O)(O)O [Alendronate, reference compound] | 53.6% |  |

Source: patent US20150164824A1, “METHODS AND COMPOSITIONS USEFUL FOR IMPROVING BONE AND JOINT HEALTH” (ABBOTT LABORATORIES, priority 2012, published 2015)
